# Results published in patent US12583851B2, “Heteroaryl-substituted pyrazine derivatives as pesticides” (Elanco Animal Health GmbH, priority 2019, dated 2026).
# Columns and labels:
# Format in all cases: in vivo
# [1] = system: larvae of the banded cucumber beetle (Diabrotica balteata); assay: Diabrotica balteata spray test; conditions: 168 h, after 7 days, read-out: efficacy (seedling growth); for pest or weed control at 6.4 µg/disc, 20 g/ha: 20 g/ha (=6.4 μg/well)
# Procedure, shortened: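 Efficacy was read 7 days after infesting each unit with 10–20 banded cucumber beetle larvae, as % of seedlings growing like untreated, uninfested controls. Before infestation, wheat seeds germinated 1 day on agar (5 per well) were sprayed with the active ingredient. The active was formulated in acetone/DMF and diluted in water containing emulsifier.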
# [2] = system: adult mosquitoes Anopheles funestus strain FUMOZ-R; assay: Anopheles funestus test (ANPHFU surface treatment & contact assay); conditions: surface concentration 20 mg/m^2, 30 minutes exposure, 24 hours after contact, read-out: mortality (efficacy)
# Procedure: Anopheles funestus Test (ANPHFU Surface Treatment & Contact Assay)
# (§1) Solvent: Aceton+2000 ppm rapeseed oil methyl ester (RME)
# (§2) In order to produce a sufficient, active ingredient containing solution it is necessary to solve the test compound in the solvent-mix (acetone at 2 mg/ml/RME 2000 ppm). This solution is pipetted onto a glazed tile and after evaporation of the acetone, adult mosquitoes of the species Anopheles funestus strain FUMOZ-R (Hunt et al., Med. Vet. Entomol. 2005 Sep. 19(3): 271-275) are placed onto the dried surface. The exposure time is 30 minutes.
# (§3) Mortality in percent (%) is determined 24 hours after contact of the insects to the treated surface. 100% mortality means that all tested insects are dead, whereas 0% means that no insect died.
# [3] = system: adult mosquitoes Aedes aegypti strain MONHEIM; assay: Aedes aegypti test (AEDSAE surface treatment & contact assay); conditions: 24 hours after contact, read-out: mortality (efficacy); for mortality at 4 mg/m2: surface concentration 4 mg/m^2, 30 minutes exposure; for mortality at 20 mg/m2: surface concentration 20 mg/m^2, 30 minutes exposure
# Procedure: Aedes aegypti Test (AEDSAE Surface Treatment & Contact Assay)
# as §1
# as §2, with “Aedes aegypti” for “Anopheles funestus”, “MONHEIM” for “FUMOZ-R (Hunt et al., Med. Vet. Entomol. 2005 Sep. 19(3): 271-275)”
# as §3
# [4] = system: adult Blattella germanica strain PAULINIA; assay: Blattella germanica test (BLTTGE surface treatment & contact assay); conditions: surface concentration 20 mg/m^2, 30 minutes exposure, 24 hours after contact, read-out: mortality (efficacy)
# Procedure: Blattella germanica Test (BLTTGE Surface Treatment & Contact Assay)
# as §1
# as §2, with “animals” for “mosquitoes”, “Blattella germanica” for “Anopheles funestus”, “PAULINIA” for “FUMOZ-R (Hunt et al., Med. Vet. Entomol. 2005 Sep. 19(3): 271-275)”
# as §3
# [5] = system: adult unfed cat fleas (Ctenocephalides felis); assay: Ctenocephalides felis oral test; conditions: 48 h, 100 ppm in citrated cattle blood, after 2 days
# Procedure, shortened: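 About 20 adult unfed cat fleas fed through parafilm on citrated cattle blood containing compound (from a DMSO concentrate). Blood held at 37° C, fleas at room temperature. Mortality in % scored after 2 days.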
# [6] = system: green peach aphid (Myzus persicae); assay: Myzus persicae oral test; conditions: 120 h, 0.8 ppm, after 5 days
# Procedure: Solvent: 100 parts by weight acetone
# To produce a suitable preparation of active compound, 1 part by weight of active compound is mixed with the stated amount of solvent, and the concentrate is diluted with water to the desired concentration.
# 50 μL compound solution is filled in microtiter plates and 150 μL IPL41 insect medium (33%+15% sugar) is added to obtain a total volume of 200 μL per well. Afterwards the plates are sealed with parafilm through which a mixed population of the green peach aphid (Myzus persicae) can suck on the compound preparation.
# After 5 days mortality in % is determined. 100% means all aphids have been killed and 0% means none of the aphids have been killed.
# [7] = system: adult flies Musca domestica strain WHO-N; assay: Musca domestica test (MUSCDO surface treatment & contact assay); conditions: 24 hours after contact, read-out: mortality (efficacy); for mortality at 20 mg/m2: surface concentration 20 mg/m^2, 30 minutes exposure
# Procedure: Musca domestica Test (MUSCDO Surface Treatment & Contact Assay)
# as §1
# as §2, with “flies” for “mosquitoes”, “Musca domestica” for “Anopheles funestus”, “WHO-N” for “FUMOZ-R (Hunt et al., Med. Vet. Entomol. 2005 Sep. 19(3): 271-275)”
# as §3
# [8] = system: adult engorged female ticks (Rhipicephalus microplus); assay: Rhipicephalus (Boophilus) microplus injection test; conditions: 168 h, 4 μg/animal, egg deposition after 7 days, read-out: efficacy (infertile eggs)
# Procedure, shortened: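 Abdominal injection, 1 μL compound/DMSO, n=5 engorged adult females; climate-chamber incubation. Readout d7: fertile egg laying; doubtful eggs held to hatch (~42 d). % efficacy = infertile eggs (100% all infertile).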
Structure (SMILES),"pest or weed control at 6.4 µg/disc, 20 g/ha [1] [%]",mortality at 20 mg/m2 [2] [%],mortality at 4 mg/m2 [3] [%],mortality at 20 mg/m2 [3] [%],mortality at 20 mg/m2 [4] [%],mortality at 100 ppm [5] [%],mortality at 0.8 ppm [6] [%],"mortality at 4 mg/m2 ([7]; surface concentration 4 mg/m^2, 30 minutes exposure) [%]",mortality at 20 mg/m2 [7] [%],pest or weed control at 0.004 mg [8] [%],"pest or weed control at 32 µg/disc, 100 g/ha ([1]; 100 g/ha (=32 μg/well)) [%]"
"CC(NC(=O)c1cc(C(F)(F)F)cc(C(F)(F)F)c1)c1nccnc1-c1ncccn1 (racemic) [Example I-8, (rac)-N-(1-(3-(Pyrimidin-2-yl)pyrazin-2-yl)ethyl)-3,5-bis(trifluoromethyl)benzamide]",100,80 to 100,80 to 100,80 to 100,80 to 100,100,100,80 to 100,80 to 100,100,
"CC(NC(=O)c1cc(Cl)cc(C(F)(F)F)c1)c1nccnc1-c1ncccn1 (racemic) [Example I-10, (rac)-3-Chloro-N-(1-(3-(pyrimidin-2-yl)pyrazin-2-yl)ethyl)-5-(trifluoromethyl)benzamide]",100,80 to 100,80 to 100,80 to 100,80 to 100,100,90,,80 to 100,100,100
